{"source": "patent US11197863B2", "about": "“Inhibitors of polo-like kinase 4 (PLK4) for treating pediatric embryonal tumors” (ANN AND ROBERT H. LURIE CHILDREN'S HOSPITAL OF CHICAGO, priority 2017, dated 2021)", "tested_on": "MON, G401, BT-12, and BT-16 cells", "experiment": "MTT cell proliferation assay, rhabdoid tumor cell lines", "assay_type": "cell-based, human", "conditions": "all cell lines evaluated; 10-500 nM, 48 and 72 hr", "description": "The expression of PLK4 (Hs00179514_m1) was verified by TaqMan GE assays (Thermo Fisher Scientific, USA) using the housekeeping gene GAPDH (Hs02758991_g1) as reference as previously described.[30] PLK4 inhibitor. […] Cell proliferation was evaluated by MTT assay and cell survival was evaluated by clonogenic assays using increasing concentrations of the drug in different time-points, as described below.\nTo evaluate cell proliferation, we used TACS MTT Cell Proliferation Assays (Trevigen, USA). We plated 2×10^3 cells on each well of a 96-well plate and the absorbance was measured after 48 and 72 hr at concentrations of 10, 50, 100, 200, and 500 nM. Each experiment was performed in triplicates.", "data": [{"smiles": "COc1ccc2c(c1)[C@]1(C[C@H]1c1ccc3c(/C=C/c4ccc(CN5C[C@@H](C)O[C@@H](C)C5)cc4)n[nH]c3c1)C(=O)N2", "note": "[CFI-400945]", "values": [{"measurement": "cell proliferation (MTT)", "result": "significant reduction of cell proliferation"}]}]}
